Measurements as given in patent US4125501A, “Phosphites of sugar alcohols and polymers stabilized therewith” (Hoechst Aktiengesellschaft, priority 1976, dated 1978).

Key:
[1] = dynamic heat stability (rolling stability) in polyvinyl chloride; conditions: 180° C, 20 rpm, 0.5 part phosphite per 100 parts PVC
Description: Each time 100 parts of a mass polyvinyl chloride having a K value of 60 were intimately mixed with
0.2 part of 2-phenyl-indole,
3.0 parts of epoxidized soybean oil
0.3 part of stearyl stearate
0.5 part of glycerol monostearate and
0.5 part each of respective phosphite of the invention.
To measure the dynamic heat stability (rolling stability) the mixtures were rolled on a two roll mill at 180° C. and with 20 revolutions per minute. At intervals of 10 minutes samples were taken from the rough sheet and the color of the samples was compared with the colors of a proper color chart. Rolling was continued until the rough sheet had turned black.
In the color chart used the individual notes have the following meaning: […]

[2] = stability to hydrolysis (boiling in deionized water, titration of liberated phosphorous acid); type: physicochemical; conditions: for degree of hydrolysis after 60 minutes: 1 h
Description: The stability to hydrolysis was tested according to the process disclosed in DT-OS 2,144,181, pages 7/8. 5.0 g each of the respective phosphite were boiled for 20 and 60 minutes in 100 ml of deionized water. The mixture was then allowed to cool, it was filtered to remove residues, if any, and in the filtrate the liberated phosphorous acid was titrated with 0.1N KOH against bromophenol blue.
In the following table is indicated the degree of hydrolysis determined under the specified conditions as quotient of the actual consumption of KOH and the theoretically possible consumption with a complete hydrolysis.

[3] = acute toxicity in male albino mice, per os; type: in vivo
Description: To test the acute toxicities of the compounds of the invention male albino mice were fed as prescribed in the book "Grundlagen der experimentellen Arzneimittelforschung" by Leopold Ther, addition 1965.
The phosphite to be tested was administered per os, suspended in aqueous methyl cellulose (Tylose^R) solution, to groups of 5 test animals each, the doses being 1,000, 2,000, and 5,000 mg/kg of body weight.

Compound: CCCCCCCCCCCCCCCCCCOP1OCC2(CO1)COP(OCCCCCCCCCCCCCCCCCC)OC2 (stereo not drawn) [distearyl-pentaerythrityl-diphosphite]
- dynamic (rolling) stability, discoloration of rough sheet after a rolling time of 40' ([1]; 40'): 4
- dynamic (rolling) stability, discoloration of rough sheet after a rolling time of 50' ([1]; 50'): 5

Compound: Di-(β-hydroxy-eicosyl)-mono-thiododecyl-mannityl-triphosphite [Example 5]
- degree of hydrolysis after 20 minutes [2]: 1.0 % of theory
- degree of hydrolysis after 60 minutes [2]: 2.0 % of theory

Compound: Di-(β-hydroxy-triacontyl)-mannityl-diphosphite [Example 3]
- degree of hydrolysis after 20 minutes [2]: 21.0 % of theory

Compound: Di-(β-hydroxy-triacontyl)-mono-thiododecyl-sorbityl-triphosphite [Example 4]
- degree of hydrolysis after 20 minutes [2]: 1.5 % of theory
- degree of hydrolysis after 60 minutes [2]: 3.6 % of theory

Compound: Di-(β-hydroxy-triacontyl)-sorbityl-diphosphite [Example 2]
- degree of hydrolysis after 20 minutes [2]: 22.5 % of theory
- toxicity assessment ([3]; acute): practically innocuous
- deaths at the highest dosage ([3]; per os, highest dose 5,000 mg/kg of body weight): no animal died

Compound: Tri-(β-hydroxy-triacontyl)-sorbityl-triphosphite [Example 1]
- degree of hydrolysis after 20 minutes [2]: 1.8 % of theory
- degree of hydrolysis after 60 minutes [2]: 2.4 % of theory
